Reference: article PMC10819809 (Microorganisms, 2024)
Values after ≈ are worked out from the molar mass of the structure shown. Square brackets hold non-standard residues; d marks the D form. Peptide text beside a SMILES is read from it.

Columns and labels:
M. tuberculosis H37Rv [1] = assay type: cell-based, Mycobacterium tuberculosis; design: key to Cord Formation at 10 µg/mL, H37Rv: Cord formation like wild type (without peptide) was classified as “normal”; no cord formation was detected, and they were classified as “not observed”; details: for Cord Formation at 10 µg/mL, H37Rv: 10 µg/mL peptide, Nikon Ni-E microscope
MDR-TB = assay type: cell-based, Mycobacterium tuberculosis; design: key: Cord formation like wild type (without peptide) was classified as “normal”; no cord formation was detected, and they were classified as “not observed”; details: 10 µg/mL peptide; Nikon Ni-E microscope
M. tuberculosis H37Rv [2] = details: microdilution broth, 96-well, 2 × 10^5 CFU/mL, 37 °C 14 days, resazurin 48 h; conducted twice with three technical replicates each
MTB = details: peptide 14D combined with another peptide; clinical trial, 255 samples from adults, routine test; cited from earlier work
M. tuberculosis = assay type: cell-based, Mycobacterium tuberculosis; details: for TTP Values at Different Peptide Concentrations, 30 µg/mL: purified peptide 30 µg/mL, MGIT, BD BACTEC MGIT 320, TB alone 12 d 4 h

Compound	Cord Formation at 10 µg/mL, H37Rv (M. tuberculosis H37Rv [1])	effect on cord formation (M. tuberculosis H37Rv [1]; 1 and 10 µg/mL peptide)	Cord Formation at 10 µg/mL, MDR-TB (MDR-TB)	MIC in µg/mL, H37Rv (M. tuberculosis H37Rv [2]) [µg/mL]	increase in sample positivity rates (MTB) [%]	TTP Values at Different Peptide Concentrations, 30 µg/mL (M. tuberculosis)	prolongation of TTP compared to the wild type (M. tuberculosis; 3 µg/mL purified peptide)	reduction of TTP compared to the wild-type peptide 14D (M. tuberculosis; 3 µg/mL purified peptide) [h]	reduction of TTP relative to the untreated control (M. tuberculosis; 3 µg/mL purified peptide) [h]
CC[C@@H](C)[C@@H](NC(=O)[C@@H](CCCCN)NC(=O)[C@H](N)Cc1c[nH]c2ccccc12)C(=O)N[C@@H](C(=O)N[C@H](Cc1ccccc1)C(=O)N[C@H](Cc1c[nH]c2ccccc12)C(=O)N[C@H](Cc1c[nH]c2ccccc12)C(=O)N[C@H](CCCNC(=N)N)C(=O)N[C@H](CCCNC(=N)N)C(N)=O)C(C)C [peptide 14D] (H-[dW][dK][dI][dV][dF][dW][dW][dR][dR]-NH2)	not observed	diminish cord formation	not observed	>50	46				
CC[C@@H](C)[C@@H](NC(=O)[C@@H](CCCCN)NC(=O)[C@H](N)Cc1c[nH]c2ccccc12)C(=O)N[C@H](CO)C(=O)N[C@H](Cc1ccccc1)C(=O)N[C@H](Cc1c[nH]c2ccccc12)C(=O)N[C@H](Cc1c[nH]c2ccccc12)C(=O)N[C@H](CCCNC(=N)N)C(=O)N[C@H](CCCNC(=N)N)C(N)=O [wkisfwwrr] (H-[dW][dK][dI][dS][dF][dW][dW][dR][dR]-NH2; N-terminus assumed)	normal		normal	20 (≈ 14.7 µM)					
CC[C@@H](C)[C@@H](NC(=O)[C@@H](CCCCN)NC(=O)[C@H](N)Cc1c[nH]c2ccccc12)C(=O)N[C@@H](C(=O)N[C@H](Cc1ccccc1)C(=O)NCC(=O)N[C@H](Cc1c[nH]c2ccccc12)C(=O)N[C@H](CCCNC(=N)N)C(=O)N[C@H](CCCNC(=N)N)C(N)=O)C(C)C [wkivfGwrr] (H-[dW][dK][dI][dV][dF]G[dW][dR][dR]-NH2; N-terminus assumed)	normal		normal	20 (≈ 16 µM)		neg (55 d)			
CC[C@@H](C)[C@@H](NC(=O)[C@@H](CCCCN)NC(=O)[C@H](N)Cc1c[nH]c2ccccc12)C(=O)N[C@@H](C(=O)N[C@H](Cc1ccccc1)C(=O)N[C@H](CC(=O)O)C(=O)N[C@H](Cc1c[nH]c2ccccc12)C(=O)N[C@H](CCCNC(=N)N)C(=O)N[C@H](CCCNC(=N)N)C(N)=O)C(C)C [wkivfdwrr] (H-[dW][dK][dI][dV][dF][dD][dW][dR][dR]-NH2)	not observed		not observed	20 (≈ 15.3 µM)		neg (55 d)	approximately 22 days		
CC[C@@H](C)[C@@H](NC(=O)[C@@H](CCCCN)NC(=O)[C@H](N)Cc1c[nH]c2ccccc12)C(=O)N[C@@H](C(=O)N[C@H](Cc1ccccc1)C(=O)N[C@H](CC(N)=O)C(=O)N[C@H](Cc1c[nH]c2ccccc12)C(=O)N[C@H](CCCNC(=N)N)C(=O)N[C@H](CCCNC(=N)N)C(N)=O)C(C)C [wkivfnwrr] (H-[dW][dK][dI][dV][dF][dN][dW][dR][dR]-NH2; N-terminus assumed)	normal		normal	20 (≈ 15.3 µM)					
NH2-wkivfiwrr-CONH2 [14D, position 6 w substituted by i, C-terminal amidated]								25	56
